# Measured values taken from patent US20130108573A1, “Bile Acid Recycling Inhibitors for Treatment of Hypercholemia and Cholestatic Liver Disease” (Lumena Pharmaceuticals, Inc., priority 2011, published 2013).
# Marks after values point to notes of the source that are not given here.
# Key:
# Dog Serum Bile Acids = assay: Duration of action of LUM001 on dog serum bile acids, Method 2: one meal, extended interval between dosing and feeding; format: in vivo, beagle dogs; conditions: for Serum Bile Acid, Mean: dogs n = 6, 0.2 mg/kg p.o., dosing time 0 hr, feeding time 2 hr
# Procedure: LUM001 was dissolved in water at concentrations that required the administration of 0.2 ml/kg of solution. Solutions were placed into gelatin capsules, Torpac Inc., size 13 Batch 594, East Hanover N.J., and administered orally.
# Male beagle dogs were obtained from Covance Research Products, Cumberland Va. or Marshall Farms USA, Inc., North Rose N.Y. A total of 20 dogs, 1 to 5 years old, 6.8 to 15.6 kg body weight, were used in these experiments. The dogs were conditioned to a 12 hour light/dark cycle and maintained on a feeding restriction of 1 hour per day access to food (Richman Standard Certified Canine Diet #5007, PMI Nutrition, Inc., St Louis Mo.) from 7 to 8 AM. They were trained to eat a special meal promptly within 20 minutes when presented (1 can. 397 g, Evanger's 100% Beef for Dogs, Evanger's Dog and Cat Food Co., Inc., Wheeling Ill., mixed with 50 g of sharp cheddar cheese.).
# SBA was measured by an enzymatic assay. SBA values are expressed as μg of total bile acids/ml of serum.
# In dogs a single experimental meal produces a postprandial rise in SBA that is elevated to a peak at 1 hour after feeding and constant for an additional 3 hours. Previous experiments (2) indicate that LUM001 remains active for more than 4.5 hours. To measure the duration of action of an ASBT inhibitor using postprandial SBA levels requires that in the control situation the SBA levels remain elevated and constant for the entire period of compound action, or that the compound be administered long before the postprandial rise occurs, and remain active in the empty digestive system for long periods before feeding. Accordingly, two alternative methods were used to provide a window of constant SBA elevation that could be used to measure the duration of action of ASBT inhibitors.
# Alternatively, 6 dogs were dosed with water or LUM001, at 0.05 mg/kg, p.o. at 1.5 hours prior to being fed, or 0.05, or 0.2 mg/kg, at 2 hours prior to feeding. This moved the elevated SBA plateau out in time from the dose point. Blood samples for SBA measurement were taken immediately before dosing (0 or 0.5 hr), at feeding (2 hr), 2.5, 3, 4 and 5 hours after feeding. This allowed detection of activity out to 5.5 and 6 hours after dosing without feeding the dogs a second time. Mean SBA levels were compared to the corresponding mean SBA levels in water treated controls.
# [1] = test system: Serum Bile Acid and Fecal Bile Acid; assay: Phase 1 ascending multiple oral dose study of LUM001 in healthy adult subjects: serum and fecal bile acid analysis; format: in vivo, human; conditions: ascending multiple oral doses, 28 days, vs placebo
# Procedure: This Phase 1 study was a randomized, double-blind, placebo-controlled study of ascending multiple oral doses of LUM001 in healthy, adult subjects. This study was conducted at a single center. There were 13 LUM001 dosing panels: 10, 20, 60, 100, and 20 mg every morning (qAM) (2) (i.e., the regimen was tested a second time in the study), 5 mg every evening (qPM), 0.5, 1, 2.5, 5, 2.5 (2), 5 (2), and 0.5 to 5 mg qAM dose titration. Most of the dosing panels included subjects treated with matching placebo. Shown in the graphs are data from the 0.5 (n=16), 1.0 (n=8), 2.5 (n=8), 5.0 (n=8) and 10 (n=8) mg dosing groups. […]
# SBA were analyzed as part of the routine clinical analysis of the serum samples collected at each time point.
# Fecal samples were collected for all panels except the dose-titration panel, 2.5 (2) and 5 mg (2), on Days 9 through 14 and 23 through 28 (data shown in FIG. 4). Twenty-four hour FBA excretions were quantified by Pharmacia for Days 9 through 14 and 23 through 28. […] The weight of each 24-hour fecal collection was recorded on the CRFs. […]
# An aliquot for each 24-hour fecal sample collected on Days 23 through 28 was combined, homogenized, and analyzed for bile acid species concentrations by ANAPHARM. The fecal bile acid species evaluated include chenodeoxycholic acid, cholic acid, deoxycholic acid, and lithocholic acid.
smiles,measurement,setting,value
CCCCC1(CCCC)CS(=O)(=O)c2ccc(N(C)C)cc2[C@@H](c2ccc(OCc3ccc(C[N+]45CCN(CC4)CC5)cc3)cc2)[C@H]1O [LUM001],"Serum Bile Acid, Mean",Dog Serum Bile Acids; time 0 hr,1.3 µg/mL
same,"Serum Bile Acid, Mean",Dog Serum Bile Acids; time 2 hr,1.7 µg/mL
same,"Serum Bile Acid, Mean",Dog Serum Bile Acids; time 5 hr,7.9* μg/ml
same,Time after feeding for which a significant SBA effect was sustained,"Dog Serum Bile Acids; dogs, 0.2 mg/kg administered 2 hours prior to feeding",2 to 3 h
same,Fecal bile acids,[1],significant increase
same,Serum bile acids,[1],significant reduction
